Assay results reported in PubChem BioAssay AID1259407 (Chemical Carcinogenesis Research Information System (CCRIS), 2018).
The source made the active and inactive calls. No rule for the calls is given here.

Test system: CCRIS mutagenicity, Ames/micronucleus/aberration tests
Experiment: CCRIS mutagenicity studies
[1] = Test System: AMES SALMONELLA TYPHIMURIUM, Strain/Indicator: TA98, Metabolic Activation: HAMSTER, LIVER, S-9, AROCLOR 1254, Method: STANDARD PLATE
[2] = Test System: AMES SALMONELLA TYPHIMURIUM, Strain/Indicator: TA98, Metabolic Activation: NONE, Method: PREINCUBATION
[3] = Test System: AMES SALMONELLA TYPHIMURIUM, Strain/Indicator: TA98, Metabolic Activation: RAT, LIVER, S-9, AROCLOR 1254, Method: STANDARD PLATE
[4] = Test System: AMES SALMONELLA TYPHIMURIUM, Strain/Indicator: TA100, Metabolic Activation: HAMSTER, LIVER, S-9, AROCLOR 1254, Method: STANDARD PLATE
[5] = Test System: AMES SALMONELLA TYPHIMURIUM, Strain/Indicator: TA100, Metabolic Activation: NONE, Method: PREINCUBATION
[6] = Test System: AMES SALMONELLA TYPHIMURIUM, Strain/Indicator: TA100, Metabolic Activation: NONE, Method: STANDARD PLATE
[7] = Test System: AMES SALMONELLA TYPHIMURIUM, Strain/Indicator: TA100, Metabolic Activation: RAT, LIVER, S-9, AROCLOR 1254, Method: STANDARD PLATE
[8] = Test System: AMES SALMONELLA TYPHIMURIUM, Strain/Indicator: TA1535, Metabolic Activation: HAMSTER, LIVER, S-9, AROCLOR 1254, Method: STANDARD PLATE
[9] = Test System: AMES SALMONELLA TYPHIMURIUM, Strain/Indicator: TA1535, Metabolic Activation: NONE, Method: PREINCUBATION
[10] = Test System: AMES SALMONELLA TYPHIMURIUM, Strain/Indicator: TA1535, Metabolic Activation: NONE, Method: STANDARD PLATE
[11] = Test System: AMES SALMONELLA TYPHIMURIUM, Strain/Indicator: TA1535, Metabolic Activation: RAT, LIVER, S-9, AROCLOR 1254, Method: STANDARD PLATE
[12] = Test System: AMES SALMONELLA TYPHIMURIUM, Strain/Indicator: TA1537, Metabolic Activation: HAMSTER, LIVER, S-9, AROCLOR 1254, Method: STANDARD PLATE
[13] = Test System: AMES SALMONELLA TYPHIMURIUM, Strain/Indicator: TA1537, Metabolic Activation: NONE, Method: PREINCUBATION
[14] = Test System: AMES SALMONELLA TYPHIMURIUM, Strain/Indicator: TA1537, Metabolic Activation: NONE, Method: STANDARD PLATE
[15] = Test System: AMES SALMONELLA TYPHIMURIUM, Strain/Indicator: TA1537, Metabolic Activation: RAT, LIVER, S-9, AROCLOR 1254, Method: STANDARD PLATE

Row | Structure (SMILES) | mutagenic call [1] | mutagenic call [2] | mutagenic call [3] | mutagenic call [4] | mutagenic call [5] | mutagenic call [6] | mutagenic call [7] | mutagenic call [8] | mutagenic call [9] | mutagenic call [10] | mutagenic call [11] | mutagenic call [12] | mutagenic call [13] | mutagenic call [14] | mutagenic call [15] | other results
1 | [Cl][Cr]([Cl])[Cl] | inactive; negative | inactive; negative | inactive; negative | inactive; negative | inactive; negative | inactive; negative | inactive; negative | inactive; negative | inactive; negative | inactive; negative | inactive; negative | inactive; negative | inactive; negative | inactive; negative | inactive; negative | mutagenic call (End Point: IN VITRO MICRONUCLEUS, Test System: CHL/IU CELLS, Metabolic Activation: NONE): active; positive; mutagenic call (Test System: AMES SALMONELLA TYPHIMURIUM, Strain/Indicator: TA94, Metabolic Activation: NONE, Method: STANDARD PLATE): active; positive; mutagenic call (Test System: AMES SALMONELLA TYPHIMURIUM, Strain/Indicator: TA98, Metabolic Activation: RAT, LIVER, S-9, PHENOBARBITAL AND BETA-NAPHTHOFLAVONE, Method: PREINCUBATION): inactive; negative; mutagenic call (Test System: AMES SALMONELLA TYPHIMURIUM, Strain/Indicator: TA100, Metabolic Activation: RAT, LIVER, S-9, PHENOBARBITAL AND BETA-NAPHTHOFLAVONE, Method: PREINCUBATION): inactive; negative; mutagenic call (Test System: AMES SALMONELLA TYPHIMURIUM, Strain/Indicator: TA102, Metabolic Activation: HAMSTER, LIVER, S-9, AROCLOR 1254, Method: STANDARD PLATE): active; positive; mutagenic call (Test System: AMES SALMONELLA TYPHIMURIUM, Strain/Indicator: TA102, Metabolic Activation: RAT, LIVER, S-9, AROCLOR 1254, Method: STANDARD PLATE): active; positive; mutagenic call (Test System: AMES SALMONELLA TYPHIMURIUM, Strain/Indicator: TA1535, Metabolic Activation: RAT, LIVER, S-9, PHENOBARBITAL AND BETA-NAPHTHOFLAVONE, Method: PREINCUBATION): inactive; negative; mutagenic call (Test System: AMES SALMONELLA TYPHIMURIUM, Strain/Indicator: TA1537, Metabolic Activation: RAT, LIVER, S-9, PHENOBARBITAL AND BETA-NAPHTHOFLAVONE, Method: PREINCUBATION): inactive; negative; mutagenic call (Test System: AMES SALMONELLA TYPHIMURIUM, Strain/Indicator: TA1538, Metabolic Activation: NONE, Method: PREINCUBATION): inactive; negative; mutagenic call (Test System: AMES SALMONELLA TYPHIMURIUM, Strain/Indicator: TA1538, Metabolic Activation: RAT, LIVER, S-9, PHENOBARBITAL AND BETA-NAPHTHOFLAVONE, Method: PREINCUBATION): inactive; negative; mutagenic call (Test System: CHINESE HAMSTER OVARY CELLS, Strain/Indicator: CHO CELLS (HPRT)/6-THIOGUANINE, Metabolic Activation: NONE, Method: STANDARD PLATE): active; positive; mutagenic call (Test System: E. COLI, Strain/Indicator: WP2 UVRA, Metabolic Activation: NONE, Method: SPOT TEST): inactive; negative; mutagenic call (Test System: E. COLI, Strain/Indicator: WP2UVRA, Metabolic Activation: RAT LIVER S-9, PHENOBARBITAL AND BETA-NAPHTHOFLAVONE, Method: PREINCUBATION): inactive; negative; mutagenic call (Test System: E.COLI, Strain/Indicator: WP2UVRA, Metabolic Activation: NONE, Method: PREINCUBATION): inactive; negative; mutagenic call (Test System: Mouse lymphoma, Strain/Indicator: L5178Y (tk+/tk-), Metabolic Activation: None, Method: Suspension/plate): inactive; negative; mutagenic call (Test System: Mouse lymphoma, Strain/Indicator: L5178Y (tk+/tk-), Metabolic Activation: Rat, Liver, S-9, Aroclor 1254, Method: Suspension/plate): active; equivocal (previous evaluation positive)
2 | Cc1ccc2nc(N)[nH]c2c1 |  |  |  |  |  |  |  |  |  |  |  |  |  |  |  | mutagenic call (Test System: AMES SALMONELLA TYPHIMURIUM, Strain/Indicator: TA98, Metabolic Activation: RAT, LIVER, S-9, AROCLOR 1254, Method: PREINCUBATION): active; positive; mutagenic call (Test System: AMES SALMONELLA TYPHIMURIUM, Strain/Indicator: TA100, Metabolic Activation: RAT, LIVER, S-9, AROCLOR 1254, Method: PREINCUBATION): inactive; negative
3 | c1ccc2c(c1)cc1ccc3cccc4ncc2c1c34 |  |  | active; positive |  |  |  | active; positive |  |  |  |  |  |  |  |  | 
4 | Clc1nc2ccccc2nc1Cl | inactive; negative | inactive; negative | inactive; negative | inactive; negative | inactive; negative | inactive; negative | inactive; negative | inactive; negative | inactive; negative | inactive; negative | inactive; negative | inactive; negative | inactive; negative | inactive; negative | inactive; negative | mutagenic call (Test System: AMES SALMONELLA TYPHIMURIUM, Strain/Indicator: TA98, Metabolic Activation: HAMSTER, LIVER, S-9, AROCLOR 1254 (10%), Method: PREINCUBATION): inactive; negative; mutagenic call (Test System: AMES SALMONELLA TYPHIMURIUM, Strain/Indicator: TA98, Metabolic Activation: NONE, Method: STANDARD PLATE): inactive; negative; mutagenic call (Test System: AMES SALMONELLA TYPHIMURIUM, Strain/Indicator: TA98, Metabolic Activation: RAT, LIVER, S-9, AROCLOR 1254 (10%), Method: PREINCUBATION): inactive; negative; mutagenic call (Test System: AMES SALMONELLA TYPHIMURIUM, Strain/Indicator: TA100, Metabolic Activation: HAMSTER, LIVER, S-9, AROCLOR 1254 (10%), Method: PREINCUBATION): inactive; negative; mutagenic call (Test System: AMES SALMONELLA TYPHIMURIUM, Strain/Indicator: TA100, Metabolic Activation: RAT, LIVER, S-9, AROCLOR 1254 (10%), Method: PREINCUBATION): inactive; negative; mutagenic call (Test System: AMES SALMONELLA TYPHIMURIUM, Strain/Indicator: TA1535, Metabolic Activation: HAMSTER, LIVER, S-9, AROCLOR 1254 (10%), Method: PREINCUBATION): inactive; negative; mutagenic call (Test System: AMES SALMONELLA TYPHIMURIUM, Strain/Indicator: TA1535, Metabolic Activation: RAT, LIVER, S-9, AROCLOR 1254 (10%), Method: PREINCUBATION): inactive; negative; mutagenic call (Test System: AMES SALMONELLA TYPHIMURIUM, Strain/Indicator: TA1537, Metabolic Activation: HAMSTER, LIVER, S-9, AROCLOR 1254 (10%), Method: PREINCUBATION): inactive; negative; mutagenic call (Test System: AMES SALMONELLA TYPHIMURIUM, Strain/Indicator: TA1537, Metabolic Activation: RAT, LIVER, S-9, AROCLOR 1254 (10%), Method: PREINCUBATION): inactive; negative; mutagenic call (Test System: AMES SALMONELLA TYPHIMURIUM, Strain/Indicator: TA1538, Metabolic Activation: HAMSTER, LIVER, S-9, AROCLOR 1254, Method: STANDARD PLATE): inactive; negative; mutagenic call (Test System: AMES SALMONELLA TYPHIMURIUM, Strain/Indicator: TA1538, Metabolic Activation: NONE, Method: STANDARD PLATE): inactive; negative; mutagenic call (Test System: AMES SALMONELLA TYPHIMURIUM, Strain/Indicator: TA1538, Metabolic Activation: RAT, LIVER, S-9, AROCLOR 1254, Method: STANDARD PLATE): inactive; negative; mutagenic call (Test System: MOUSE LYMPHOMA, Strain/Indicator: L5178Y (TK+/TK-), Metabolic Activation: NONE, Method: SUSPENSION/PLATE): active; positive. reevaluation of results: equivocal; mutagenic call (Test System: MOUSE LYMPHOMA, Strain/Indicator: L5178Y (TK+/TK-), Metabolic Activation: RAT, LIVER, S-9, AROCLOR 1254, Method: SUSPENSION/PLATE): active; positive. reevaluation of results: positive
